Format in all cases: biochemical
In one assay the target is T1, CDK2^K89V/cyclin A (Homo sapiens, UniProt P24941, K89V).
T1 construct: GST (N, cleaved yes); made in house; host or cells: Escherichia coli; phosphorylated in vitro by GST-CAK
The assay is described as follows: Bandshift kinase assay after incubation and dialysis, mutant. As to the method:
The bandshift experiment was repeated after incubating CDK2^K88E/cyclin A and CDK2^K89V/cyclin A with NU6300, NU6310, or DMSO followed by dialysis to remove unbound inhibitor (Figure S2G).
Figure S2, Related to Figure 3. Identification of the site of CDK2 modification by NU6300. (A-G) Single site CDK2 mutants CDK2D86A, CDK2K88E, and CDK2K89V identify the site of CDK2 modification by NU6300. These mutations change the CDK2 sequence to that of CDK7 and are known not to disrupt the CDK2 fold. Mass spectra of CDK2 mutants: […]
(G) Protein kinase activity of authentic CDK2 and single site CDK2 mutants following incubation with NU6300 or NU6310. Samples were taken at the indicated number of minutes after initiation of the reaction. Note that compared to authentic CDK2, the single site Lys88 and Lys89 mutants have a slower rate of reaction (Compare LHS panels). This drop in activity was expected because whereas the wild type protein was produced by co-expression with S. cerevisiae […]
the mutant proteins were activated by S. cerevisiae CAK1 phosphorylation in vitro– a relatively inefficient process as judged from the results of ESI-MS (Table S1). (H) NU6300 […]
NU6300 carbon atoms are coloured green. Rb, retinoblastoma protein, Phospho-Rb, […]
Protein expression and purification
Site-directed mutagenesis of CDK2 was performed using the QuikChange II kit (Stratagene) following the manufacturer’s instructions and verified by DNA sequencing.
Wild-type CDK2 phosphorylated at Thr160, untagged human cyclin A2 (residues 174-432), S. cerevisiae GST–CAK, GST–3C-protease and GST–pRb (residues 792–928) were expressed and purified as previously described (Brown et al., 1999a; Brown et al., 1999b; Welburn and Endicott, 2005). […]
CDK2/cyclin A (200 µM) was incubated overnight with 1 mM inhibitor or DMSO, and then dialysed for 8 h with regular replacement of dialysis buffer into HEPES-buffered saline (50 mM HEPES, pH 7.5, 250 mM NaCl, 0.02% MTG). […] Reactions were stopped by addition of SDS-PAGE loading buffer and analyzed by SDS-PAGE. […]

Another assay concerns the target RSK1 (Homo sapiens, UniProt Q15418). As to the kind of experiment: Dundee kinase screen re-test (standard format and 4 hour pre-incubation). As to conditions: RSK1, 0.5µM. The protocol: (§1) Prior to determining its cellular activity, we carried out a screen to assess its selectivity against a panel of 131 protein kinases under conditions that would not distinguish between a reversible or irreversible mode of action. […] These 13 kinases and 29 additional kinases, selected for their known sensitivity to other inhibitors within the purine series, were then tested in a modified screening format in which the assay was repeated following a 4-hr pre-incubation (Table S3B). […] However, conformational flexibility around the active site may promote such an interaction with a residue from another part of the structure ([Martin et al., 2012]).
(§2) Table S3, Related to Figure 4. NCL-0006300 protein kinase selectivity. […]
(§3) Dundee protein kinase screen (Bain et al., 2007). Values given are % activity remaining and are the average of duplicate measurements: 0-25% (red), 26-50% (yellow), 51-80% […]
(§4) (black) and above 81% (green). […]
(§5) (B) Selected kinases were re-tested in the Dundee kinase screen against NU6300 at a single concentration of 0.5 µM both in the standard assay format and following a 4 hour pre-incubation in the presence of NU6300. Kinases which have very low activity after the 4 hour incubation so that results might not be wholly reliable are boxed in salmon. Kinases where the activity after a 4 hour pre-incubation is < 50% that in the standard assay format are highlighted in red.

A further assay deals with T2, TAK1 (Homo sapiens, UniProt O43318).
T2 sequence (O43318 1-303 limits assumed): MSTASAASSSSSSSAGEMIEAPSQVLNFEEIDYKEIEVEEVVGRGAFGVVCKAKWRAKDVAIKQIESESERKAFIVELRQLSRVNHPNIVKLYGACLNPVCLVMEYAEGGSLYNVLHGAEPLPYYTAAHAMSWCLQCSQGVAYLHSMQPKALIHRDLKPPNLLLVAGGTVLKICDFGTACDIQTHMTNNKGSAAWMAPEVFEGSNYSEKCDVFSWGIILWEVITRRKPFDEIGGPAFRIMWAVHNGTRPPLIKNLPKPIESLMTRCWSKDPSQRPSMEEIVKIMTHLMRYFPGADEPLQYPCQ
The description is as above. Conditions: TAK1, 0.5µM. As to the method: as §1, §2, §3, §4, §5

For the next assay, the target named is ROCK 2 (Homo sapiens, UniProt O75116). Described as above. As to conditions: ROCK 2, 0.5µM. As to the method: as §1, §2, §3, §4, §5
Chain of ROCK 2 (O75116 whole entry): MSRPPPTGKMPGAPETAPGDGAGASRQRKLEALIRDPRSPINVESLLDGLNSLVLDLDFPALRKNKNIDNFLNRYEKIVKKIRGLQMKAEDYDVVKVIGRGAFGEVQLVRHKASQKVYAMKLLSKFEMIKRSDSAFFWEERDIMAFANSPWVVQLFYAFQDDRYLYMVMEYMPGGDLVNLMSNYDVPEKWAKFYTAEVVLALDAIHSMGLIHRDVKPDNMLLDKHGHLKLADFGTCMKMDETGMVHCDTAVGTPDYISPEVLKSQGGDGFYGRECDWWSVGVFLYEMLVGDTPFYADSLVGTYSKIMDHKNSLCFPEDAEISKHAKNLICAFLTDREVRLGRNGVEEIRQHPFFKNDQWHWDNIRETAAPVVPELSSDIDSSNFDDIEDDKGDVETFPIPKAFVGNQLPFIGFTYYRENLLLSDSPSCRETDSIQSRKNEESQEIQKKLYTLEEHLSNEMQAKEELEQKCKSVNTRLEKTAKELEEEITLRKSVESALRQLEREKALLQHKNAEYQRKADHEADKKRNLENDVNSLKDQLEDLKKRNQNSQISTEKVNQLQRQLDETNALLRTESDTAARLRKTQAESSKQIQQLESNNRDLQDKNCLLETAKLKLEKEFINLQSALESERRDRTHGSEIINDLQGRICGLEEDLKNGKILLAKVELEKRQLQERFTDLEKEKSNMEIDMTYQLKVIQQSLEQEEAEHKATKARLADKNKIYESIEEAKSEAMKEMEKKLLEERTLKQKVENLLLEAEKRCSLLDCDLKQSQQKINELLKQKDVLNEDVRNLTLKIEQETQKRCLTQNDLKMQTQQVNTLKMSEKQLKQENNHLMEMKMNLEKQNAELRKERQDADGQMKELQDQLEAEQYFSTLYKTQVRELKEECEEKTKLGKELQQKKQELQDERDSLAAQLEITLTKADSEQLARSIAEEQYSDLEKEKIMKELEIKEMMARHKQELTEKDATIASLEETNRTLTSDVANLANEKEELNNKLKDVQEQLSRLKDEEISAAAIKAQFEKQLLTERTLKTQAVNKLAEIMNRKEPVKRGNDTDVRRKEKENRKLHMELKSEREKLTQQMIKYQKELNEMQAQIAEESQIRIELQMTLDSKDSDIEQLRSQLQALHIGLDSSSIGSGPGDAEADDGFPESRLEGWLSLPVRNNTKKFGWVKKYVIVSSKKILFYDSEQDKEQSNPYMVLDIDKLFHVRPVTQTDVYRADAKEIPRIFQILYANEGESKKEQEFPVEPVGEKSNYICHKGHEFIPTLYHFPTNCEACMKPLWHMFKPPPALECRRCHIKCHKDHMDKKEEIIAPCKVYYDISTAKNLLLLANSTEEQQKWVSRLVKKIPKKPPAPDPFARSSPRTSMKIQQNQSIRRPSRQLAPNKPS
The target in the next assay is Src (Homo sapiens, UniProt P12931). Described as above. The protocol:
as §1, §2, §3, §4, §5

The target in a further assay is SIK2 (Homo sapiens, UniProt Q9H0K1). The assay is described as above. As to conditions: SIK2, 0.5µM. As to the method:
as §1, §2, §3, §4, §5

The mark [1] stands for this setting: 4hr RT preincubation, read-out: %Remaining activity at 0.5µM NU6300 - 4hr RT preincubation.
Where [2] appears, read: usual format, read-out: %Remaining activity at 0.5µM NU6300 - Usual assay format.

By remaining activity is commonly meant the signal under treatment as a percentage of the control signal.

Structures are written as SMILES. Read-outs that look alike come from different tables or passages of the source.

Chain of Src (P12931 whole entry): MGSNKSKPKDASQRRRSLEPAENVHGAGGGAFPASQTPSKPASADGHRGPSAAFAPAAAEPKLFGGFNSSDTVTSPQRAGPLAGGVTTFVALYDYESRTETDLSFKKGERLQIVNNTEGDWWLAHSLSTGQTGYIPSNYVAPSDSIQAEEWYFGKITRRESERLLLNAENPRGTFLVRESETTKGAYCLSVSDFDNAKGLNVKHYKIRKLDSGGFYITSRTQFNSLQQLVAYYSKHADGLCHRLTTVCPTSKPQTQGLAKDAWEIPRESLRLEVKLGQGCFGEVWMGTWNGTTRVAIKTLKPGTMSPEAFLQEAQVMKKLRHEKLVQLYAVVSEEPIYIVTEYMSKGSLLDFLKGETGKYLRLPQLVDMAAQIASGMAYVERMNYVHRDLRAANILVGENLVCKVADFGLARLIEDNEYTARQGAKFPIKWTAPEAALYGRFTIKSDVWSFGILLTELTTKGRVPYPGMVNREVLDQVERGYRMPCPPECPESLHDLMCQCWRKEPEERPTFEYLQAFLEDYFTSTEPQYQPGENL
Chain of RSK1 (Q15418 whole entry): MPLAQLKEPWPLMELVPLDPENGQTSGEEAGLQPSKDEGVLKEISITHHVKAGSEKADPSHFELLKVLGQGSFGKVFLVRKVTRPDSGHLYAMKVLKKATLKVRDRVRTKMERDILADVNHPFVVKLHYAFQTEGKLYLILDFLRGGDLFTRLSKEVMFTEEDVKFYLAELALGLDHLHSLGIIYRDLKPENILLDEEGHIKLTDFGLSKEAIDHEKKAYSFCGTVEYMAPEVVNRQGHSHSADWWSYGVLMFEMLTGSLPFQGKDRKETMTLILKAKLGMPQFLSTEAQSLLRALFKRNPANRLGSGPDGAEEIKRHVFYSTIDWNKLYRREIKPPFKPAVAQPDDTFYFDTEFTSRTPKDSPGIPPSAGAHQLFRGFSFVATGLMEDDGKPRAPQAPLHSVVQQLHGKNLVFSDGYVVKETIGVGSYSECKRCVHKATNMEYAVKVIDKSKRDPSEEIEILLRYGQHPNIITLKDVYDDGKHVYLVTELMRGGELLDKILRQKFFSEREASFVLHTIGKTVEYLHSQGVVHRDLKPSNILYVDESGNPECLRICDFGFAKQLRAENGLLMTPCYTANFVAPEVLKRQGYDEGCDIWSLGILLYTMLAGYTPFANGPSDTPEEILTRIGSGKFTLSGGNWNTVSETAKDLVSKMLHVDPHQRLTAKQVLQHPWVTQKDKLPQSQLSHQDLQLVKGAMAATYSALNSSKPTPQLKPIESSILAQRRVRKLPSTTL
Chain of SIK2 (Q9H0K1 whole entry): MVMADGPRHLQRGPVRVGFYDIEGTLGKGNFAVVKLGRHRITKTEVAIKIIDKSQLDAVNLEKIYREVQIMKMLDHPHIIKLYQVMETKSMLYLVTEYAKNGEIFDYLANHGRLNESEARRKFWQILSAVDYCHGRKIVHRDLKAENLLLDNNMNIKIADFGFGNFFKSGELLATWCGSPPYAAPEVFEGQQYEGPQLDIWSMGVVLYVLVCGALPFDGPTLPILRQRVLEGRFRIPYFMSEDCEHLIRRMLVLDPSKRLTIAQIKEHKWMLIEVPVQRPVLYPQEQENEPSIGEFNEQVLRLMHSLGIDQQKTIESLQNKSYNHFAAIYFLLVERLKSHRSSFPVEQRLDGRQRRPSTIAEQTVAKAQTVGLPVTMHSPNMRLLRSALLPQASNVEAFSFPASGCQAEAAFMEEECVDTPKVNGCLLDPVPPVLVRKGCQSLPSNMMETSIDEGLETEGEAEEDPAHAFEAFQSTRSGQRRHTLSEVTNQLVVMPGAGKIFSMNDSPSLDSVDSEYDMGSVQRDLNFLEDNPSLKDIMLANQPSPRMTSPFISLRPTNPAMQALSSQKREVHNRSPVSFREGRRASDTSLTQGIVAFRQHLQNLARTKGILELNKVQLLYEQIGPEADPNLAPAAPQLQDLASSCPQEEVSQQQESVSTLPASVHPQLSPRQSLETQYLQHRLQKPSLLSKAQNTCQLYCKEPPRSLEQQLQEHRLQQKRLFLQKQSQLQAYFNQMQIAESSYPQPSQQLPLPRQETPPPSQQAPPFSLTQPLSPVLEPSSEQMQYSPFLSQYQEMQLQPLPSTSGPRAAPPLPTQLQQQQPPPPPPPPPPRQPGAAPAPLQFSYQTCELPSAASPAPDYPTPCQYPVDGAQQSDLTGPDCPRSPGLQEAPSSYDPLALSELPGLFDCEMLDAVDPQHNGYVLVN

`C=CS(=O)(=O)c1ccc(Nc2nc(OCC3CCCCC3)c3nc[nH]c3n2)cc1` [NU6300, 6-(cyclohexylmethoxy)-N-(4-(vinylsulfonyl)phenyl)-9H-purin-2-amine]: at CDK2^K89V/cyclin A, the “CDK2 activity against Rb after incubation with inhibitor and dialysis” value was “recovered activity”. Besides, the remaining activity at 0.5 µM on RSK1 (setting [1]) is 131%; on RSK1 (setting [2]), 83%; on TAK1 (setting [1]), 24%; at TAK1 (setting [2]), 19%; at ROCK 2 (setting [1]), 47%; at ROCK 2 (setting [2]) it was 46%. The remaining activity at 0.5 µM on Src (setting [1]) was found to be 54%; at Src (setting [2]) it was 48%; on SIK2 (setting [1]), 69%; at SIK2 (setting [2]) it was 39%.

Consider `CCS(=O)(=O)c1ccc(Nc2nc(OCC3CCCCC3)c3nc[nH]c3n2)cc1` [NU6310, 6-(cyclohexylmethoxy)-N-(4-(ethylsulfonyl)phenyl)-9H-purin-2-amine], for which, at CDK2^K89V/cyclin A, the “CDK2 activity against Rb after incubation with inhibitor and dialysis” value is listed as “recovered their activity”.
